Measured values as given in EP4656642A1, “ESTROGEN RECEPTOR PROTEOLYSIS TARGETING CHIMERA COMPOUND AND USE THEREOF” (GAN & LEE PHARM CO., LTD, priority 2023, dated 2024).

Assays:
Type in all cases: cell-based
MCF-7 cells = experiment: Inhibition of cell proliferation of MCF-7 cells (CCK-8, 6 days); conditions: 6 days of treatment, Table 4
Excerpt: Test Example 3 Inhibitory effect of the PROTAC compounds provided in the present disclosure on cell proliferation of MCF-7 cells
The complete medium required for MCF-7 cells (source ATCC) was DMEM (gibco, Product number :11995-065) basal medium containing 10% fetal bovine serum. MCF-7 cells were inoculated in 96-well plates at a density of 800 cells/well, and different concentrations of the PROTAC compounds 1-55 provided in the examples of the present disclosure and a positive control sample ARV-471 (source: Innochem) were prepared to treat the cells, and the cells were treated at 37°C in a cell culture incubator with 5% CO2 for 6 days. Cell viability was detected using a CCK-8 kit (Beyotime, Product number: C0040) according to the manufacturer's instructions. The IC50 values of each PROTAC compound after 6 days of treatment were calculated using GraphPadPrism software based on the inhibition rate, and the results are shown in Table 4. Table 4 IC50 values for inhibition of the proliferation of MCF-7 cells by the PROTAC compounds of the present disclosure and positive control sample

ERα [1] = molecular target: T1, ERα (Homo sapiens, UniProt P03372); experiment: Degradation of ERα in T-47D cells (immunoblotting, 4 h); parameters: host or cells: T-47D
T1 sequence (P03372 1-595): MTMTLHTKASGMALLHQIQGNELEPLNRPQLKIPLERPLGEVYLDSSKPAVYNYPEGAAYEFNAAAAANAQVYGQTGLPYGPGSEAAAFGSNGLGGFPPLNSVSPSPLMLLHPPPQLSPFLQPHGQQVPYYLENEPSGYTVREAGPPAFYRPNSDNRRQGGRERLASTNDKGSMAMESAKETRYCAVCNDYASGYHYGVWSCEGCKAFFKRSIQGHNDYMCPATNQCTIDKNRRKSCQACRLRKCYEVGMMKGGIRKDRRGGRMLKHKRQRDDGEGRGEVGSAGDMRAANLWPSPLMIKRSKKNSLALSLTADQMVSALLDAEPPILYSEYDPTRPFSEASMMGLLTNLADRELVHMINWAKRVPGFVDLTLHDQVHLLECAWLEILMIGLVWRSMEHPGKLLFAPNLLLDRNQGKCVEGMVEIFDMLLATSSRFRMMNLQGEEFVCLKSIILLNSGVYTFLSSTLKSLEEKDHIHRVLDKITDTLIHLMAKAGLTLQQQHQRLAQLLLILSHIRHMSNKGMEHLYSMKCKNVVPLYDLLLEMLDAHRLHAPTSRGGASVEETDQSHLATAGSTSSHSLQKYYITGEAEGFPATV
Summary of the method: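 ERα protein levels were assessed by immunoblot of RIPA lysates (with protease inhibitor) after 4 h exposure at 37°C. Compound was added in DMSO to T-47D cells at final concentrations of 0.15-1000 nM.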

ERα [2] = molecular target: T1, ERα; experiment: Degradation of ERα in MCF-7 cells (immunoblotting, 4 h); conditions: 10nM compound
Summary of the method: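 Degradation rate reflects ERα band intensity, corrected to an internal reference protein, relative to control. Values come from Western blotting of lysates from MCF-7 cells exposed 4 h at 37°C to compounds at final concentrations of 0.15-1000nM.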

T-47D cells = experiment: Inhibition of cell proliferation in T-47D cells (CCK-8, 6 days); conditions: 6 days of treatment, Table 2
Summary of the method: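 Viability read-out was CCK-8 after 6 days of compound treatment (37 °C, 5% CO2) across graded concentrations. Cells were T-47D seeded at 3,000 per well in 1640 medium plus 10% FBS. IC50 was calculated against proliferation.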

AR protein = molecular target: T2, AR protein (Homo sapiens, UniProt P10275, T878A); experiment: Degradation of AR protein in LNCAP cells (Western blot, 8 h); conditions: LNCaP FGC cells
T2 construct: host or cells: LNCaP FGC
T2 sequence (P10275 1-920 T878A): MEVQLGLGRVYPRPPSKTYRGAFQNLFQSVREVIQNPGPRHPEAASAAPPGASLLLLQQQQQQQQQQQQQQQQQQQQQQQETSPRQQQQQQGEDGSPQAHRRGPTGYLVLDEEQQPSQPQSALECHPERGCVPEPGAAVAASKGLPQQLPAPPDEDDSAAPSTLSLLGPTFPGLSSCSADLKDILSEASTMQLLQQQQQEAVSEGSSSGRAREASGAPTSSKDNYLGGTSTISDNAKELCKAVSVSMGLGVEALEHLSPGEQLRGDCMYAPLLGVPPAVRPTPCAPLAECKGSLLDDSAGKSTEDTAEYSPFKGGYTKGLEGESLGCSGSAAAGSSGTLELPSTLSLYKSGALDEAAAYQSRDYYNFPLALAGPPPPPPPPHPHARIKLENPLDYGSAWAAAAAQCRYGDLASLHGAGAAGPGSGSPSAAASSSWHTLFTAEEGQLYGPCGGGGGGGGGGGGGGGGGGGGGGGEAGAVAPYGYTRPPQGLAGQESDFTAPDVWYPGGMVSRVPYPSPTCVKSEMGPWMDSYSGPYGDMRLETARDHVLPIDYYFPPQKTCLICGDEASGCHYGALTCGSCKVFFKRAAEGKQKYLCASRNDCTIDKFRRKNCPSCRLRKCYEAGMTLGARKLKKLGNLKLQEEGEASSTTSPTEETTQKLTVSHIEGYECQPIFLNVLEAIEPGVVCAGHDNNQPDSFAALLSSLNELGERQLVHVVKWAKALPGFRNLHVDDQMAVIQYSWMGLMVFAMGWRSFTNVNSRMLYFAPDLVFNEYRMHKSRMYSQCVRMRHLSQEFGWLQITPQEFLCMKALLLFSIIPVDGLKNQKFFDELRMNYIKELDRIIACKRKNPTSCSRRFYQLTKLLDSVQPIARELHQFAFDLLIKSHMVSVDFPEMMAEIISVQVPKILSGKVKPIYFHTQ
Protocol: After 8 h, the culture medium was discarded, and the cells were washed with PBS. After the cells were washed with PBS, RIPA lysis buffer containing 1% Protease Inhibitor Cocktail was added, and the total protein extract was obtained after lysis and centrifugation, and the protein concentration in the extract was detected by BCA method. Protein electrophoresis was carried out by SDS-PAGE, after which the proteins were transferred to PVDF (Millipore Sigma Catalog No. PSRP010R5) membrane by 100V constant voltage electrotransfer for 60 min, and the PVDF membrane was placed in 1×TBST solution with 5% milk and blocked at room temperature for 1h. […] The primary antibody solution was discarded, and the PVDF membrane was washed three times with 1× TBST for 5 min each. […] The secondary antibody solution was discarded, and the PVDF membrane was washed three times with 1× TBST for 5 min each. Western membrane imaging was performed using a dual-color infrared laser imaging system (Licor catalog number Odyssey CLX). Bands were analyzed in grayscale using the software Image Studio. For each sample, GAPDH protein bands were detected as internal reference. The degradation rates of the AR protein for the compounds and positive control sample were calculated based on the grayscale of the protein bands.

Row | SMILES | IC50 (MCF-7 cells) | Degradation rate (%) of ERα in T-47D cells (ERα [1]; 10nM compound) | Degradation rate (%) of ERα in MCF-7 cells (ERα [2]) | IC50 (T-47D cells) | Degradation rate (%) of ERα in T-47D cells (ERα [1]; 1nM compound) | Degradation rates of the AR protein in LNCAP cells, 10 nM (%) (AR protein) | Degradation rates of the AR protein in LNCAP cells, 100 nM (%) (AR protein)
1 | O=C1CCC(N2C(=O)c3cc4c(cc3C2=O)C2(CCN(C3CCC5(CC3)CN(c3ccc(C6c7ccc(O)cc7CCC6c6ccccc6)cc3)C5)CC2)CO4)C(=O)N1 (stereo not drawn) [A20] | 11600 nM | 36% | 18% | 25 nM |  |  | 
2 | O=C1CCC(N2C(=O)c3cc4c(cc3C2=O)OCC2(CCN(CC3CN(c5ccc(C6c7ccc(O)cc7CCC6c6ccccc6)cc5)C3)CC2)C4)C(=O)N1 (stereo not drawn) [O1] | 53600 nM |  |  | 130 nM |  |  | 
3 | O=C1CCC(N2Cc3cc4c(cc3C2=O)OC2(CC4)CCN(C3CCC4(CC3)CCN(c3ccc(C5c6ccc(O)cc6CCC5c5ccccc5)cc3)CC4)CC2)C(=O)N1 (stereo not drawn) [A22] | 940 nM | 19% | 13% | 57 nM |  |  | 
4 | O=C1CCC(N2C(=O)c3cc4c(cc3C2=O)OC2(CC4)CCN(C3CC4(CCN(c5ccc(C6c7ccc(O)cc7CCC6c6ccccc6)cc5)CC4)C3)CC2)C(=O)N1 (stereo not drawn) [A10] | 37200 nM | -37% | -3% | 35 nM |  |  | 
5 | O=C1CCC(N2Cc3cc4c(cc3C2=O)OC2(CC4)CCN(CC3CCN(c4ccc(C5c6ccc(O)cc6CCC5c5ccccc5)cc4)C3)CC2)C(=O)N1 (stereo not drawn) [B2] | 10200 nM | -92% | -26% | 229 nM |  |  | 
6 | O=C1CCC(N2Cc3cc4c(cc3C2=O)OCC2(CCN(C3CCC5(CC3)CCN(c3ccc(C6c7ccc(O)cc7CCC6c6ccccc6)cc3)CC5)CC2)O4)C(=O)N1 (stereo not drawn) [A26] | 3780 nM | 40% | 13% | 21 nM |  |  | 
7 | O=C1CCC(N2C(=O)c3cc4c(cc3C2=O)OCC2(CCN(C3CC5(CCN(c6ccc(C7c8ccc(O)cc8CCC7c7ccccc7)cc6)CC5)C3)CC2)C4)C(=O)N1 (stereo not drawn) [A13] | 24500 nM | 12% | -9% | 31 nM |  |  | 
8 | O=C1CCC(N2Cc3cc4c(cc3C2=O)CCC2(CCN(C3C[C@@H]5CN(c6ccc(C7c8ccc(O)cc8CCC7c7ccccc7)cc6)C[C@@H]5C3)CC2)O4)C(=O)N1 (stereo partly drawn) [A29] | 5480 nM | -2% | 8% | 215 nM |  |  | 
9 | O=C1CCC(N2Cc3cc4c(cc3C2=O)OCC2(CCN(C3CC5(CCN(c6ccc(C7c8ccc(O)cc8CCC7c7ccccc7)cc6)CC5)C3)CC2)O4)C(=O)N1 (stereo not drawn) [M7] | 13600 nM | 56% |  | 17 nM | 17% |  | 
10 | O=C1CCC(N2C(=O)c3cc4c(cc3C2=O)OCC2(CCN(C3CCC5(CC3)CCN(c3ccc(C6c7ccc(O)cc7CCC6c6ccccc6)cc3)CC5)CC2)C4)C(=O)N1 (stereo not drawn) [A15] | 1190 nM | 16% | -2% | 63 nM |  |  | 
11 | O=C1CCC(N2C(=O)c3cc4c(cc3C2=O)OC2(CC4)CCN(C3CC4(C3)CN(c3ccc(C5c6ccc(O)cc6CCC5c5ccccc5)cc3)C4)CC2)C(=O)N1 (stereo not drawn) [O3] | 86800 nM |  |  | 202 nM |  |  | 
12 | C[C@H]1CC2(CCN(c3ccc(C(=O)N4CCC(CN5CCC6(CC5)COc5cc7c(cc56)CN(C5CCC(=O)NC5=O)C7=O)CC4)cc3)CC2)CN1c1ccc(C#N)c(Cl)c1 (stereo partly drawn) [2-384] |  |  |  |  |  | 48% | 63%
13 | O=C1CCC(N2Cc3cc4c(cc3C2=O)CCC2(CCN(CC3CN(c5ccc(C6c7ccc(O)cc7CCC6c6ccccc6)cc5)C3)CC2)O4)C(=O)N1 (stereo not drawn) [M1] | 44100 nM |  |  | 117 nM |  |  | 
14 | C[C@H]1CC2(CCN(c3ccc(N4CCC(CN5CCC6(CC5)COc5cc7c(cc56)CN(C5CCC(=O)NC5=O)C7=O)CC4)cc3)CC2)CN1c1ccc(C#N)c(Cl)c1 (stereo partly drawn) [2-376] |  |  |  |  |  | 20% | 70%
15 | O=C1CCC(N2Cc3cc4c(cc3C2=O)CCC2(CCN(C3CC5(CCN(c6ccc(C7c8ccc(O)cc8CCC7c7ccccc7)cc6)CC5)C3)CC2)O4)C(=O)N1 (stereo not drawn) [M6] | 4380 nM | 54% |  | 11 nM | 22% |  | 
16 | O=C1CCC(N2Cc3cc4c(cc3C2=O)OC2(CC4)CN(C3CC4(CCN(c5ccc(C6c7ccc(O)cc7CCC6c6ccccc6)cc5)CC4)C3)C2)C(=O)N1 (stereo not drawn) [M8] | 51700 nM |  |  | 22 nM |  |  | 
17 | O=C1CCC(N2Cc3cc4c(cc3C2=O)OC2(CC4)CCN(C3CC4(C3)CN(c3ccc(C5c6ccc(O)cc6CCC5c5ccccc5)cc3)C4)CC2)C(=O)N1 (stereo not drawn) [M5] | 5660 nM |  |  | 313 nM |  |  | 
